According to US20110178117A1 (Merck Sharp & Dohme Corp., priority 2008, published 2011):

target: T1, recombinant human mGluR2 (Homo sapiens, UniProt Q14416); assay: FLIPR Ca2+ mobilization assay, potentiation of glutamate response; format: cell-based; conditions: CHO dhfr- cells expressing human mGluR2 and Gα16; potentiation after EC20 glutamate (900 nM); read-out: Representative FLIPR EC50 Values: EC50
T1 construct: expressed in transfected cells
Procedure: The compounds of the present invention may be tested in a fluorescence laser imaging plate reader (FLIPR) based assay. This assay is a common functional assay to monitor Ca^2+ mobilization in whole cells expressing recombinant receptor coupled with a promiscuous G-protein. CHO dhfr-cells stably expressing recombinant human mGluR2 and Gα16 loaded with Fluo-4 AM (Invitrogen, Carlsbad Calif.) are treated with dose responses of compounds and the Ca^2+ response is monitored on a FLIPR384 (Molecular Devices, Sunnydale Calif.) for agonist activity. The potentiation response is monitored after a subsequent addition of an EC20 concentration of glutamate (900 nM). The maximum calcium response at each concentration of compound for agonist or potentiation are plotted as dose responses and the curves are fitted with a four parameters logistic equation giving EC50 and Hill coefficient using the iterative non linear curve fitting software program.

T1 sequence (Q14416 19-872): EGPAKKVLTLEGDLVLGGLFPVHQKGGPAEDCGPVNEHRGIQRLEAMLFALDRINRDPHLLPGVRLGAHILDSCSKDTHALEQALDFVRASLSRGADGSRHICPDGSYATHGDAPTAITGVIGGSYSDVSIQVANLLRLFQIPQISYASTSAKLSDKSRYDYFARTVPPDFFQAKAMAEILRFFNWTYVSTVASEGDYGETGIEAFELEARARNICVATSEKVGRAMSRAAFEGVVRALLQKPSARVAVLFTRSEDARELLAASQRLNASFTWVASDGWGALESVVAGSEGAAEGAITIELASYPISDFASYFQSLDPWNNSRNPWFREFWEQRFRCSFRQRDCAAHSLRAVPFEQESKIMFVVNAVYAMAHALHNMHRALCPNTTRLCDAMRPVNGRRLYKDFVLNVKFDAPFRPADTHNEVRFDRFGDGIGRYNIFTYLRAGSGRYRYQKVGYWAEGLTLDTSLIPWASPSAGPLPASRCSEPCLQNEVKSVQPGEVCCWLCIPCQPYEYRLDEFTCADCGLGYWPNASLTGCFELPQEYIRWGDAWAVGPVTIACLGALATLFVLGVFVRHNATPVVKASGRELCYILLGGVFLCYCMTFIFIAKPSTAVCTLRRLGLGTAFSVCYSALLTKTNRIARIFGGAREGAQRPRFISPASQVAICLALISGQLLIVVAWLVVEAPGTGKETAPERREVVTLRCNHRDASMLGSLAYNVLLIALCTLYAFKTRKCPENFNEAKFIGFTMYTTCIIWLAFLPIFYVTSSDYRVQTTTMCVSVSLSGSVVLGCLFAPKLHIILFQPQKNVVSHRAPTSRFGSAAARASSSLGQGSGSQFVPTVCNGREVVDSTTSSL

Molecule	EC50
CCCCCCC1(CC)Cn2c(nc3ccccc32)O1 (centres unmarked) [Example 4-3]	2290 nM
CCCCCC[C@@H]1Cn2c(nc3ccccc32)O1 [Example 1-5, (2R)-2-hexyl-2,3-dihydro[1,3]oxazolo[3,2-a]benzimidazole]	21 nM
CC(C)(C)OC(=O)N1CCCC(C2Cn3c(nc4ccccc43)O2)C1 (centres unmarked) [Example 3-7, tert-butyl 3-(2,3-dihydro[1,3]oxazolo[3,2-a]benzimidazole-2-yl)piperidine-1-carboxylate]	378 nM
c1ccc2c(c1)nc1n2CC(CC2CCCCC2)O1 (centres unmarked) [Example 3-5, 2-(cyclohexylmethyl)-2,3-dihydro[1,3]oxazolo[3,2-a]benzimidazole]	2140 nM
CCCCCCC1(C)Cn2c(nc3ccccc32)O1 (centres unmarked) [Example 4-2, 2-hexyl-2-methyl-2,3-dihydro[1,3]oxazolo[3,2-a]benzimidazole]	622 nM
CCCCCC[C@@H]1Cn2c(nc3cc(C#N)ccc32)O1 [Example 1-19, (2R)-2-hexyl-2,3-dihydro[1,3]oxazolo[3,2-a]benzimidazole-7-carbonitrile]	11 nM
(R)-2-(6-fluorohexyl)-2,3-dihydrobenzo oxazolo[3,2-a]imidazole-7-carbonitrile [Example 1-31]	68 nM
COCCCCC1Cn2c(nc3ccccc32)O1 (centres unmarked) [Example 1-21, 2-(4-methoxybutyl)-2,3-dihydrobenzo[d]oxazolo[3,2-a]imidazole]	3120 nM
